Results taken from US20250320213A1, “Nitrogen-Containing Heterocyclic Compounds” (Pfizer Inc., priority 2024, published 2025).
Like-named read-outs stand apart in the source and are kept apart here.

Molecular target: T1, STAT6 (Homo sapiens, UniProt P42226)
T1 construct: stably transfected HaCaT keratinocyte cell line, which expresses NanoLuc luciferase reporter gene under the transcriptional control of the STAT6 responsive promoter; endogenous in cells; host or cells: HaCaT keratinocyte reporter cell line (stably transfected with a NanoLuc reporter)
T1 sequence (P42226 1-847): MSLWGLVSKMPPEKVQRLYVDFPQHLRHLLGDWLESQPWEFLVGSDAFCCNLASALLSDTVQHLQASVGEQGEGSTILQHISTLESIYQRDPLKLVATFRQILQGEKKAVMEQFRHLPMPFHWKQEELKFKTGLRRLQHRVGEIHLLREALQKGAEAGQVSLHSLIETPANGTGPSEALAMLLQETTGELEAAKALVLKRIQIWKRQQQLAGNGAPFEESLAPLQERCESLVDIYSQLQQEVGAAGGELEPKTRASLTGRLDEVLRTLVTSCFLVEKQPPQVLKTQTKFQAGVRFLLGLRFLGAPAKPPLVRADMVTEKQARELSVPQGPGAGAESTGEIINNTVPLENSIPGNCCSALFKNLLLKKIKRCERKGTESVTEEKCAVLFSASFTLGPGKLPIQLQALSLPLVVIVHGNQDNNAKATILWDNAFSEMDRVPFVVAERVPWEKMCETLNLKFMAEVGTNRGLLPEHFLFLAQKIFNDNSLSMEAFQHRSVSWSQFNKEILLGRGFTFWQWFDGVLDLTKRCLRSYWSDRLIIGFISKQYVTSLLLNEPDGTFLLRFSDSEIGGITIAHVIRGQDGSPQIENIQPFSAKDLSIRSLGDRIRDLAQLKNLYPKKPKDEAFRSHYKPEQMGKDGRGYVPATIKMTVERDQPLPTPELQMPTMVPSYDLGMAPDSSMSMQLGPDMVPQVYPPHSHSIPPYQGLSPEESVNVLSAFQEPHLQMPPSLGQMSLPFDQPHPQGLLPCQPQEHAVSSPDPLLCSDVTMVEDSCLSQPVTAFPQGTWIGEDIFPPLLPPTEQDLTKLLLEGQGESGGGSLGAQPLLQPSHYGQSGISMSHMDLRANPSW
Assay: STAT6 Reporter Luciferase Assay (IL-13 stimulated HaCaT keratinocyte NanoLuc reporter cells)
Assay type: cell-based
Conditions: read-out: Reporter EC50
Method in brief: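 Luminescence from a NanoLuc reporter driven by the STAT6-responsive IL-13Ra2 promoter in HaCaT keratinocytes serves as the read-out. Compounds are given 2 h before a 4 h stimulation with 0.12 nM IL-13.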

[1] = IL-13 stimulated HaCaT STAT6 NanoLuc reporter cells

Structure (SMILES) | EC50 [1] [nM] | EC50 (STAT6 NanoLuc luciferase reporter, IL-13 stimulated HaCaT keratinocyte cells) [nM]
Cc1nnc2n1CCN(C(=O)c1ccc(N3CCc4c(c(C(=O)NCc5ccc(NC(=O)N(C)C)cc5)nn4C(C)C)C3)nc1)C2 [Example 373, N-(4-(3,3-dimethylureido)benzyl)-1-isopropyl-5-(5-(3-methyl-5,6,7,8-tetrahydro-[1,2,4]triazolo[4,3-a]pyrazine-7-carbonyl)pyridin-2-yl)-4,5,6,7-tetrahydro-1H-pyrazolo[4,3-c]pyridine-3-carboxamide] | 540 | 
CC(C)n1nc(C(=O)NCc2ccc(NC(=O)N(C)C)cc2)c2c1CCN(c1ccc(C(=O)N3CC4CC(C3)C4O)cn1)C2 (stereo not shown) [Example 243, N-(4-(3,3-dimethylureido)benzyl)-5-(5-(6-hydroxy-3-azabicyclo[3.1.1]heptane-3-carbonyl)pyridin-2-yl)-1-isopropyl-4,5,6,7-tetrahydro-1H-pyrazolo[4,3-c]pyridine-3-carboxamide] | 1650 | 
CC(C)n1nc(C(=O)NCc2ccc(NC(=O)N3CCC(C(F)F)C3)cc2)c2c1CCN(c1ccc(C(=O)N(C)C)cn1)C2 (racemic) [Example 145, rac-(R)-N-(4-(3-(difluoromethyl)pyrrolidine-1-carboxamido)benzyl)-5-(5-(dimethylcarbamoyl)pyridin-2-yl)-1-isopropyl-4,5,6,7-tetrahydro-1H-pyrazolo[4,3-c]pyridine-3-carboxamide] |  | 6
CC(C)n1nc(C(=O)NCc2ccc(NC(=O)N(C)C)cc2)c2c1CCN(c1ccc(C(=O)N3CCn4nc(C#N)cc4C3)cn1)C2 [Example 386, 5-(5-(2-cyano-4,5,6,7-tetrahydropyrazolo[1,5-a]pyrazine-5-carbonyl)pyridin-2-yl)-N-(4-(3,3-dimethylureido)benzyl)-1-isopropyl-4,5,6,7-tetrahydro-1H-pyrazolo[4,3-c]pyridine-3-carboxamide] | 56 | 
CC(C)n1nc(C(=O)NCc2ccc(NC(=O)N(C)C)cc2)c2c1CCN(c1ccc(C(=O)N3C[C@@H](C)O[C@@H](C)C3)cn1)C2 [Example 207, 5-(5-((2R,6S)-2,6-dimethylmorpholine-4-carbonyl)pyridin-2-yl)-N-(4-(3,3-dimethylureido)benzyl)-1-isopropyl-4,5,6,7-tetrahydro-1H-pyrazolo[4,3-c]pyridine-3-carboxamide] | 272 | 
CC(C)n1nc(C(=O)NCc2ccc(NC(=O)N3CCC4(CCN(C)CC4)CC3)cc2)c2c1[C@@H](C)CN(c1ccc(C(=O)N(C)C)cc1)C2 [Example 749, (S)-N-(4-((5-(4-(dimethylcarbamoyl)phenyl)-1-isopropyl-7-methyl-4,5,6,7-tetrahydro-1H-pyrazolo[4,3-c]pyridine-3-carboxamido)methyl)phenyl)-9-methyl-3,9-diazaspiro[5.5]undecane-3-carboxamide] | 0.4 | 
COc1cccc2c1CN(C(=O)c1ccc(N3CCc4c(c(C(=O)NCc5ccc(NC(=O)N(C)C)cc5)nn4C(C)C)C3)nc1)C2 [Example 387, N-(4-(3,3-dimethylureido)benzyl)-1-isopropyl-5-(5-(4-methoxyisoindoline-2-carbonyl)pyridin-2-yl)-4,5,6,7-tetrahydro-1H-pyrazolo[4,3-c]pyridine-3-carboxamide] | 3 | 
CC(C)n1nc(C(=O)NCc2ccc(NC(=O)N3CC4(CCCN(C)C4)C3)c(F)c2)c2c1[C@@H](C)CN(c1ccc(C(=O)N(C)C)cc1)C2 [Example 646, (S)-5-(4-(dimethylcarbamoyl)phenyl)-N-(3-fluoro-4-(6-methyl-2,6-diazaspiro[3.5]nonane-2-carboxamido)benzyl)-1-isopropyl-7-methyl-4,5,6,7-tetrahydro-1H-pyrazolo[4,3-c]pyridine-3-carboxamide] | 1 | 
CC(C)n1nc(C(=O)NCc2ccc(NC(=O)N3CCC4(CC3)CCN4C)c(F)c2)c2c1[C@@H](C)CN(c1ccc(C(=O)N(C)C)cc1)C2 [Example 645, (S)-5-(4-(dimethylcarbamoyl)phenyl)-N-(3-fluoro-4-(1-methyl-1,7-diazaspiro[3.5]nonane-7-carboxamido)benzyl)-1-isopropyl-7-methyl-4,5,6,7-tetrahydro-1H-pyrazolo[4,3-c]pyridine-3-carboxamide] | 1 | 
Cc1cnc2c(c1)CN(C(=O)c1ccc(N3CCc4c(c(C(=O)NCc5ccc(NC(=O)N(C)C)cc5)nn4C(C)C)C3)nc1)CC2 [Example 410, N-(4-(3,3-dimethylureido)benzyl)-1-isopropyl-5-(5-(3-methyl-5,6,7,8-tetrahydro-1,6-naphthyridine-6-carbonyl)pyridin-2-yl)-4,5,6,7-tetrahydro-1H-pyrazolo[4,3-c]pyridine-3-carboxamide] | 15 | 
COC[C@@H]1CCCN1C(=O)c1ccc(N2CCc3c(c(C(=O)NCc4ccc(NC(=O)N(C)C)cc4)nn3C(C)C)C2)nc1 [Example 209, (S)-N-(4-(3,3-dimethylureido)benzyl)-1-isopropyl-5-(5-(2-(methoxymethyl)pyrrolidine-1-carbonyl)pyridin-2-yl)-4,5,6,7-tetrahydro-1H-pyrazolo[4,3-c]pyridine-3-carboxamide] | 692 | 
CC(C)n1nc(C(=O)NCc2ccc(NC(=O)N(C)C)cc2)c2c1CCN(c1ccc(C(=O)N3CCNC(=O)C3)cn1)C2 [Example 223, N-(4-(3,3-dimethylureido)benzyl)-1-isopropyl-5-(5-(3-oxopiperazine-1-carbonyl)pyridin-2-yl)-4,5,6,7-tetrahydro-1H-pyrazolo[4,3-c]pyridine-3-carboxamide] | 201 | 
CC(C)n1nc(C(=O)NCc2ccc(NC(=O)N3CC4(CN(C)C4)C3)c(F)c2)c2c1[C@@H](C)CN(c1ccc(C(=O)N(C)C)cc1)C2 [Example 641, (S)-5-(4-(dimethylcarbamoyl)phenyl)-N-(3-fluoro-4-(6-methyl-2,6-diazaspiro[3.3]heptane-2-carboxamido)benzyl)-1-isopropyl-7-methyl-4,5,6,7-tetrahydro-1H-pyrazolo[4,3-c]pyridine-3-carboxamide] | 5 | 
CCS(=O)(=O)N1CCN(C(=O)c2ccc(N3CCc4c(c(C(=O)NCc5ccc(NC(=O)N(C)C)cc5)nn4C(C)C)C3)nc2)CC1 [Example 563, N-(4-(3,3-dimethylureido)benzyl)-5-(5-(4-(ethylsulfonyl)piperazine-1-carbonyl)pyridin-2-yl)-1-isopropyl-4,5,6,7-tetrahydro-1H-pyrazolo[4,3-c]pyridine-3-carboxamide] | 202 | 
CC(C)n1nc(C(=O)NCc2ccc(NC(=O)N(C)C)cc2)c2c1CCN(c1ccc(C(=O)N3CCn4cnnc4C3)cn1)C2 [Example 380, N-(4-(3,3-dimethylureido)benzyl)-1-isopropyl-5-(5-(5,6,7,8-tetrahydro-[1,2,4]triazolo[4,3-a]pyrazine-7-carbonyl)pyridin-2-yl)-4,5,6,7-tetrahydro-1H-pyrazolo[4,3-c]pyridine-3-carboxamide] | 538 | 
CC(C)n1nc(C(=O)NCc2ccc(NC(=O)N3CCN4CCCC[C@H]4C3)c(F)c2)c2c1[C@@H](C)CN(c1ccc(C(=O)N(C)C)cc1)C2 [Example 640, (S)-N-(4-(((S)-5-(4-(dimethylcarbamoyl)phenyl)-1-isopropyl-7-methyl-4,5,6,7-tetrahydro-1H-pyrazolo[4,3-c]pyridine-3-carboxamido)methyl)-2-fluorophenyl)octahydro-2H-pyrido[1,2-a]lpyrazine-2-carboxamide] | 1 | 
CC(C)n1nc(C(=O)NCc2ccc(NC(=O)N(C)C)cc2)c2c1CCN(c1ccc(C(=O)N3CCn4c(cccc4=O)C3)cn1)C2 [Example 439, N-(4-(3,3-dimethylureido)benzyl)-1-isopropyl-5-(5-(6-oxo-1,3,4,6-tetrahydro-2H-pyrido[1,2-a]pyrazine-2-carbonyl)pyridin-2-yl)-4,5,6,7-tetrahydro-1H-pyrazolo[4,3-c]pyridine-3-carboxamide] | 88 | 
CC(C)n1nc(C(=O)NCc2ccc(NC(=O)N(C)C)cc2)c2c1CCN(c1ccc(C(=O)N(C)CCO)cn1)C2 [Example 332, N-(4-(3,3-dimethylureido)benzyl)-5-(5-((2-hydroxyethyl)(methyl)carbamoyl)pyridin-2-yl)-1-isopropyl-4,5,6,7-tetrahydro-1H-pyrazolo[4,3-c]pyridine-3-carboxamide] | 160 | 
CCNC(=O)CN(C)C(=O)c1ccc(N2CCc3c(c(C(=O)NCc4ccc(NC(=O)N(C)C)cc4)nn3C(C)C)C2)nc1 [Example 229, N-(4-(3,3-dimethylureido)benzyl)-5-(5-((2-(ethylamino)-2-oxoethyl)(methyl)carbamoyl)pyridin-2-yl)-1-isopropyl-4,5,6,7-tetrahydro-1H-pyrazolo[4,3-c]pyridine-3-carboxamide] | 592 | 
